For the experiment, the target named is T1, Thermus aquaticus (Taq) DNA polymerase variant G46D F667Y E681K (Thermus aquaticus, UniProt P19821, E681K/F667Y/G46D).
T1 construct: Expression vector pRDA3-2 contains the full-length Taq DNA polymerase gene; made in house; host or cells: E. coli DG116 (plasmid pLK113)
As to the kind of experiment: Limiting template primer extension competition assay (ddNTP incorporation), G46D F667Y E681K Taq. The experiment is classed as biochemical. On the procedure: The ability of the enzymes of this invention to efficiently incorporate nucleotides labeled with fluorescein family dyes is measured by ddNTP incorporation assays. One such assay is a primer extension competition assay conducted under conditions of limiting template. In this assay, a primer DG48 (5′-[…]), (SEQ ID NO: 11), bound to M13 mp18 template (Innis et al., 1988, Proc. Natl. Acad. Sci. USA 85:9436) is extended in the presence of [α-^33P]dCTP and excess enzyme with various levels of a fluorescently labeled ddNTP, Zowie-ddCTP. Because the incorporation of a ddCTP residue terminates the extension reaction, the more readily a DNA polymerase incorporates a ddCTP into an extended primer, the less [α-^33P]dCTP can be incorporated. Thus, as the efficiency of fluorescently labeled ddCTP incorporation increases, the extent of inhibition of DNA synthesis is increased. The reactions were also performed with various levels of an unlabeled ddCTP. […]
The relative abilities of G46D F667Y Taq, G46D F667Y E681K Taq and F730Y Tma30 DNA polymerases to incorporate a fluorescein dye family-labeled ddCTP were compared by use of a limiting template, primer extension competition assay. […] In this competition assay, because the incorporation of a ddCTP terminates the extension reaction, the more readily the polymerase incorporates a ddCTP into an extended primer, the less [α-^33P]dCTP can be incorporated. […]

T1 sequence (P19821 whole entry G46D/F667Y/E681K): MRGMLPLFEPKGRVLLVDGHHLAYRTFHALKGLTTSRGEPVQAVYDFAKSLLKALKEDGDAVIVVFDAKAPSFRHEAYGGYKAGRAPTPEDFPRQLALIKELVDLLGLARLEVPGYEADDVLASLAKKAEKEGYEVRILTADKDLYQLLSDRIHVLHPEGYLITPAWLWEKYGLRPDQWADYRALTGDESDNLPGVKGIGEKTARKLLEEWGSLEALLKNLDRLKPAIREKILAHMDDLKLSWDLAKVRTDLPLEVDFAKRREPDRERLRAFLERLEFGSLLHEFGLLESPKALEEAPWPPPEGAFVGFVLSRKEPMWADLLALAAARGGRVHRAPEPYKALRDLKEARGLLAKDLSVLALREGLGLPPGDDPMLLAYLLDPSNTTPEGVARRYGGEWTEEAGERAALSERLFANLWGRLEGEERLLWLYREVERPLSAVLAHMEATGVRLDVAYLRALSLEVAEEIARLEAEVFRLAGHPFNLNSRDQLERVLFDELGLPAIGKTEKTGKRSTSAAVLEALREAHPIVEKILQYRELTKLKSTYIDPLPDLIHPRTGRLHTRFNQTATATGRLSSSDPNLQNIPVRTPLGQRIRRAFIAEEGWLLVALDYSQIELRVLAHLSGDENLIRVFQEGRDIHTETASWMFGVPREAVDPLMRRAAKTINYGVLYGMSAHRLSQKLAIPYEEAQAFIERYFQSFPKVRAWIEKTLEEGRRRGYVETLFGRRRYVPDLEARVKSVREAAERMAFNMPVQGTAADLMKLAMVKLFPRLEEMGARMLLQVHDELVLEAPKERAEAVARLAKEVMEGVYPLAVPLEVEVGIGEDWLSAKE

`Nc1ccn([C@H]2CC[C@@H](COP(=O)(O)OP(=O)(O)OP(=O)(O)O)O2)c(=O)n1` [ddCTP] returned a half-inhibitory concentration (IC50) of 116 nM.

One may read the IC50 as the midpoint of a concentration-inhibition curve. The low end stands for inhibition by little substance, the high end for a need for much substance.

The values above are taken from US7598032B2, “Thermostable DNA polymerases incorporating nucleoside triphosphates labeled with fluorescent dyes” (Roche Molecular Systems, priority 1997, dated 2009).
